# Measurements taken from patent US20220202801A1, “USE OF COMPOUND IN PREPARATION OF DRUG FOR TREATING ATHEROSCLEROSIS” (GenEros Biopharma Ltd., priority 2019, published 2022).
# Key:
# VCAM-1 = assay: Immunohistochemistry of aortic wall, VCAM-1; assay type: in vivo, mice; conditions: for aorta (VCAM-1) signal expression in blood vessels: IHC-P×400, single animal micrograph; for VCAM-1 average optical density: aortic wall
# Excerpt: (§1) Methods: SPF grade C57BL/6 ApoE −/−model mice were provided by Guangdong Medical Experimental Animal Center, laboratory animal production license No. SOCK (Guangdong) 2013-0002. Laboratory animal quality certificate number: 44007200048196). Mice were half male and half female, aged 8 to 12 weeks, and 72 animals in total. After four weeks of housing in a SPF-level animal facility, animals with less body weights were disposed. A total of 64 animals were randomly divided into 8 groups, 8 in each group, fed with 10% high-fat food, and received with different treatments. Animals were observed and administered with the medicines by gavage once daily. The body weights were measured once a week and continued for 58 days. […] The test sample was dissolved in dimethyl sulfoxide solution and prepared with 30% PEG300.
# (§2) After blood collection, the animals were sacrificed, and the aortic arch together with the heart and thoracic aorta were fixed with neutral formaldehyde and subject to pathological examination. The abdominal aorta was collected and quick-frozen in liquid nitrogen, and stored at −80° C.
# (§3) c) Immunohistochemistry: The thoracic aorta was sliced and detected by immunohistochemistry for the expression of CD68, intercellular adhesion molecule-1 (ICAM-1), and vascular cell adhesion Molecule-1 (VCAM-1).
# ApoE knockout mice [1] = assay: Blood lipid metabolism TG, TCHO, HDL-c, LDL-c (Example 2); assay type: in vivo
# Excerpt: Methods: A total of 130 SPF grade C57BL/6 ApoE −/− model male mice aged 8 weeks were purchased from Charles River Laboratories (Beijing, China) (animal license number: SCXK (Beijing) 2016-0001, animal qualification certificate No.: 11400700331337). After one week of acclimatization in a SPF-grade animal facility, the animals with less weights were discarded and the rest was randomly divided into 11 groups, with 8 animals in each group. Except for the healthy control group, the rest were fed with 10% high-fat food (the first day of the high-fat diet was recorded as D1). Starting from the 8th week of the high-fat diet, each group of animals was orally given solvents or corresponding drugs, and the volume of administration was 10 ml/kg, once a day for 8 weeks. Animals were observed and administered by gavage once a day and the body weight were measured once a week for 56 days. […] The store solution of the test samples was dissolved in dimethyl sulfoxide solution and prepared with 30% PEG300.
# At the end of the experiment, the animals were euthanized by inhalation of carbon dioxide. Blood was taken from the heart, and centrifuged at 3000 r/min at a low temperature centrifuge for 10 min to separate the serum. The levels of total cholesterol TC, triglyceride TG, high-density lipoprotein HDL-C, and low-density lipoprotein LDL-C were measured, and the remaining serum was stored in a refrigerator at −80° C.
# Before the start of the experiment, animal blood samples were analyzed for blood lipid metabolism, including conventional triglyceride (TG), total cholesterol (TCHO), high-density lipoprotein (HDL-c) and low-density lipoprotein (LDL-c). After high-fat or ordinary food feeding for 8 weeks, the blood lipid levels were measured again. After the drug treatment was started, blood lipid measurements were performed every four weeks until the end of the experiment.
# ApoE knockout mice [2] = assay: Four blood lipids in serum of ApoE knockout mice (Example 1); assay type: in vivo; conditions: for HDL-C / LDL-C / TC / TG: serum
# Excerpt: as §1
# At the end of the experiment, animals were anesthetized with pentobarbital sodium. Blood was collected from the orbital venous plexus, and centrifuged at 3000 r/min at a low temperature for 10 min to separate the serum. The levels of total cholesterol TC, triglyceride TG, high-density lipoprotein HDL-C, and low-density lipoprotein LDL-C were measured, and the remaining serum was stored in a refrigerator at −80° C.
# Statistical analysis: Data were expressed as the mean plus or minus the standard deviation (x± s), and analyzed by SPSS21.0 statistical software. […] The level of test is α=0.05.
# ICAM-1 = assay: Immunohistochemistry of aortic wall, ICAM-1; assay type: in vivo, mice; conditions: for aorta (ICAM-1) signal expression in blood vessels: IHC-P×400, single animal micrograph; for ICAM-1 average optical density: aortic wall
# Excerpt: as §1, §2, §3
# [3] = system: atherosclerotic lesions in ApoE knockout mice; assay: Aortic HE and oil red O staining, atherosclerotic lesion scores (Example 1); assay type: in vivo; conditions: for Mild n (number of animal cases with mild lesions) / Moderate n (number of animal cases with moderate lesions) / No lesion n (number of animal cases) / Severe n (number of animal cases with severe lesions): of 8 animals; for animals that had atherosclerosis (histological observation): of 8 aortas examined
# Excerpt: as §1, §2
# a) HE staining: aortic arch was sliced and HE stained. The plaques were observed under optical microscope.
# b) Oil red O staining: aortic arch was sliced and oil red O stained. The plaques were observed under optical microscope.
# [4] = 5 mg/kg gavage QD, listed as Nib1, 5 mg/kg
# [5] = 5 mg/kg gavage QD, listed as sample A, 5 mg/kg
# [6] = 10 mg/kg gavage QD, listed as sample A, 10 mg/kg
# [7] = half male and female, 2 mg/kg body weight
# [8] = half male and female, 5 mg/kg body weight
# [9] = half male and female, 10 mg/kg body weight
# [10] = ♀, 2 mg/kg gavage QD, 58 days, 2 mg/kg
# [11] = ♀, 2 mg/kg gavage QD, 58 days, listed as Nib1, 2 mg/kg
# [12] = ♀, 10 mg/kg gavage QD, 58 days, 10 mg/kg
# [13] = ♀, 10 mg/kg gavage QD, 58 days, listed as Nib1, 10 mg/kg
smiles,measurement,setting,value
O=c1[nH]c2ccccc2n1C1CCN(CCCC(c2ccc(F)cc2)c2ccc(F)cc2)CC1 [Sample A],aorta (VCAM-1) signal expression in blood vessels,VCAM-1; 2 mg/kg,low to medium
same,aorta (VCAM-1) signal expression in blood vessels,VCAM-1; 5 mg/kg,low to medium
same,aorta (VCAM-1) signal expression in blood vessels,VCAM-1; 10 mg/kg,low to medium
same,VCAM-1 average optical density,VCAM-1; 2 mg/kg gavage QD,1.41 ± 0.34 ×10^−2
same,VCAM-1 average optical density,"VCAM-1; 5 mg/kg gavage QD, 5 mg/kg",0.77 ± 0.46 ×10^−2
same,VCAM-1 average optical density,VCAM-1; [4],reduced expression
same,VCAM-1 average optical density,VCAM-1; [5],lower than the model control group
same,VCAM-1 average optical density,"VCAM-1; 10 mg/kg gavage QD, 10 mg/kg",0.49 ± 0.51 ×10^−2
same,VCAM-1 average optical density,VCAM-1; [6],lower than the model control group
same,effect on high-density lipoprotein (HDL-c) level compared with the vehicle group,ApoE knockout mice [1],significantly reduce
same,effect on low-density lipoprotein (LDL-c) level compared with the vehicle group,ApoE knockout mice [1],significantly reduce
same,effect on total cholesterol (TCHO) level compared with the vehicle group,ApoE knockout mice [1],significantly reduce
same,effect on triglyceride (TG) level compared with the vehicle group,ApoE knockout mice [1],significantly reduce
same,regulation on blood lipid levels (overall),"ApoE knockout mice [2]; Example 1, overall",have the effect of improving blood lipids
same,HDL-C,ApoE knockout mice [2]; [7],1.80 ± 0.62 mmol/L
same,LDL-C,ApoE knockout mice [2]; [7],6.23 ± 2.86 mmol/L
same,TC,ApoE knockout mice [2]; [7],19.86 ± 6.92 mmol/L
same,TG,ApoE knockout mice [2]; [7],1.18 ± 0.70 mmol/L
same,LDL-C,ApoE knockout mice [2]; [8],6.09 ± 2.12 mmol/L
same,TC,ApoE knockout mice [2]; [8],20.87 ± 6.13 mmol/L
same,TG,ApoE knockout mice [2]; [8],0.82 ± 0.17 mmol/L
same,HDL-C,"ApoE knockout mice [2]; half male and female, 5 mg/kg body weight, 5 mg/kg",1.63 ± 0.28 mmol/L
same,HDL-C,"ApoE knockout mice [2]; half male and female, 5 mg/kg body weight, listed as sample A, 5 mg/kg",lower
same,LDL-C,ApoE knockout mice [2]; [9],5.82 ± 2.13 mmol/L
same,TC,ApoE knockout mice [2]; [9],19.85 ± 6.26 mmol/L
same,TG,ApoE knockout mice [2]; [9],0.89 ± 0.20 mmol/L
same,HDL-C,"ApoE knockout mice [2]; half male and female, 10 mg/kg body weight, 10 mg/kg",1.62 ± 0.35 mmol/L
same,HDL-C,"ApoE knockout mice [2]; half male and female, 10 mg/kg body weight, listed as sample A, 10 mg/kg",lower
same,TG,"ApoE knockout mice [2]; ♀, 2 mg/kg gavage QD, 58 days",0.86 ± 0.16 mmol/L
same,LDL-C,ApoE knockout mice [2]; [10],3.86 ± 0.95 mmol/L
same,TC,ApoE knockout mice [2]; [10],13.88 ± 1.77 mmol/L
same,LDL-C,ApoE knockout mice [2]; [11],decreased
same,TC,ApoE knockout mice [2]; [11],decreased
same,LDL-C,"ApoE knockout mice [2]; ♀, 5 mg/kg gavage QD, 58 days",4.30 ± 0.39 mmol/L
same,TC,"ApoE knockout mice [2]; ♀, 5 mg/kg gavage QD, 58 days",15.41 ± 1.32 mmol/L
same,TG,"ApoE knockout mice [2]; ♀, 5 mg/kg gavage QD, 58 days",0.70 ± 0.11 mmol/L
same,TG,"ApoE knockout mice [2]; ♀, 10 mg/kg gavage QD, 58 days",0.76 ± 0.07 mmol/L
same,LDL-C,ApoE knockout mice [2]; [12],3.86 ± 0.38 mmol/L
same,TC,ApoE knockout mice [2]; [12],14.07 ± 0.64 mmol/L
same,LDL-C,ApoE knockout mice [2]; [13],decreased
same,TC,ApoE knockout mice [2]; [13],decreased
same,HDL-C,"ApoE knockout mice [2]; ♂, 2 mg/kg gavage QD, 58 days",2.26 ± 0.54 mmol/L
same,LDL-C,"ApoE knockout mice [2]; ♂, 2 mg/kg gavage QD, 58 days",8.60 ± 1.79 mmol/L
same,TC,"ApoE knockout mice [2]; ♂, 2 mg/kg gavage QD, 58 days",25.84 ± 3.63 mmol/L
same,TG,"ApoE knockout mice [2]; ♂, 2 mg/kg gavage QD, 58 days",1.51 ± 0.92 mmol/L
same,HDL-C,"ApoE knockout mice [2]; ♂, 5 mg/kg gavage QD, 58 days",1.83 ± 0.24 mmol/L
same,LDL-C,"ApoE knockout mice [2]; ♂, 5 mg/kg gavage QD, 58 days",7.87 ± 1.38 mmol/L
same,TC,"ApoE knockout mice [2]; ♂, 5 mg/kg gavage QD, 58 days",26.34 ± 2.50 mmol/L
same,TG,"ApoE knockout mice [2]; ♂, 5 mg/kg gavage QD, 58 days",0.94 ± 0.15 mmol/L
same,HDL-C,"ApoE knockout mice [2]; ♂, 10 mg/kg gavage QD, 58 days",1.92 ± 0.18 mmol/L
same,LDL-C,"ApoE knockout mice [2]; ♂, 10 mg/kg gavage QD, 58 days",7.78 ± 0.40 mmol/L
same,TC,"ApoE knockout mice [2]; ♂, 10 mg/kg gavage QD, 58 days",25.64 ± 1.32 mmol/L
same,TG,"ApoE knockout mice [2]; ♂, 10 mg/kg gavage QD, 58 days",1.02 ± 0.22 mmol/L
same,aorta (ICAM-1) signal expression in blood vessels,ICAM-1; 2 mg/kg,low to medium
same,aorta (ICAM-1) signal expression in blood vessels,ICAM-1; 5 mg/kg,low to medium
same,aorta (ICAM-1) signal expression in blood vessels,ICAM-1; 10 mg/kg,low to medium
same,ICAM-1 average optical density,"ICAM-1; 2 mg/kg gavage QD, 2 mg/kg",2.11 ± 1.53 ×10^−2
same,ICAM-1 average optical density,"ICAM-1; 2 mg/kg gavage QD, listed as sample A, 2 mg/kg",lower than the model control group
same,ICAM-1 average optical density,"ICAM-1; 5 mg/kg gavage QD, 5 mg/kg",2.31 ± 1.16 ×10^−2
same,ICAM-1 average optical density,ICAM-1; [4],reduced expression
same,ICAM-1 average optical density,ICAM-1; [5],lower than the model control group
same,ICAM-1 average optical density,"ICAM-1; 10 mg/kg gavage QD, 10 mg/kg",1.75 ± 1.46 ×10^−2
same,ICAM-1 average optical density,ICAM-1; [6],lower than the model control group
same,formation of arterial plaque (pathological results),"[3]; medium doses, preventive treatment",could delay the formation of arterial plaque in ApoE knockout mice to a certain extent
same,Mild n (number of animal cases with mild lesions),[3]; 2 mg/kg body weight,4
same,Moderate n (number of animal cases with moderate lesions),[3]; 2 mg/kg body weight,0
same,No lesion n (number of animal cases),[3]; 2 mg/kg body weight,1
same,Severe n (number of animal cases with severe lesions),[3]; 2 mg/kg body weight,3
same,Mild n (number of animal cases with mild lesions),[3]; 5 mg/kg body weight,5
same,Moderate n (number of animal cases with moderate lesions),[3]; 5 mg/kg body weight,0
same,No lesion n (number of animal cases),[3]; 5 mg/kg body weight,3
same,Severe n (number of animal cases with severe lesions),[3]; 5 mg/kg body weight,0
same,Mild n (number of animal cases with mild lesions),[3]; 10 mg/kg body weight,1
same,Moderate n (number of animal cases with moderate lesions),[3]; 10 mg/kg body weight,2
same,No lesion n (number of animal cases),[3]; 10 mg/kg body weight,2
same,Severe n (number of animal cases with severe lesions),[3]; 10 mg/kg body weight,3
same,animals that had atherosclerosis (histological observation),[3]; 2 mg/kg,7 cases
same,animals that had atherosclerosis (histological observation),[3]; 5 mg/kg,5 cases
same,animals that had atherosclerosis (histological observation),[3]; 10 mg/kg,6 cases
same,effect on atherosclerotic lesions compared with the statin group,"[3]; overall, aortic pathology Example 1",equivalent to or better than that of the statin group
same,"Scores (atherosclerotic lesion score, average of the group)","[3]; score 0-3 per Table 8, 2 mg/kg body weight",1.62 ± 1.19
same,"Scores (atherosclerotic lesion score, average of the group)","[3]; score 0-3 per Table 8, 5 mg/kg body weight",0.62 ± 0.52
same,"Scores (atherosclerotic lesion score, average of the group)","[3]; score 0-3 per Table 8, 5 mg/kg body weight, listed as sample A",lower than the model control group
same,"Scores (atherosclerotic lesion score, average of the group)","[3]; score 0-3 per Table 8, 10 mg/kg body weight",1.75 ± 1.28
